Measurements taken from US20080269242A1, “Crystalline Salts of 7-[4-(4-Naphthalen-1-Yl-Piperazin-1-Yl)-Butoxy]-3,4-Dihydro-1H-[1,8]Naphthyridine-2-One” (priority 2005, published 2008).

Columns and labels:
[1] = Solid-state stability study, open dish; type: physicochemical; conditions: for solid-state stability (degradation): open dish, 6 month
[2] = Conversion of crystalline form on standing; type: physicochemical; conditions: ambient temperatures
[3] = test system: spontaneous locomotor activity (SLMA); assay: Spontaneous locomotor activity (SLMA) in rats; type: in vivo, Male Sprague-Dawley rats; conditions: rat; for SLMA, Mean centimeters traveled in 1 hour±SEM: 60-minute absorption period, recorded 1 hour, vehicle 4066±297
Source text: Effects of 7-[4-(4-naphthalen-1-yl-piperazin-1-yl)-butoxy]-3,4-dihydro-1H-[1,8]naphthyridin-2-one on spontaneous locomotors activity (SLMA) was investigated in an in vivo animal model, which is predictive of antipsychotic efficacy.
Method: Male Sprague-Dawley rats were used in studies where SLMA was quantified using an activity monitor in a sound-attenuated chamber. Rats were randomly assigned to various groups (including a vehicle control group). 7-[4-(4naphthalen-1-yl-piperazin-1-yl)-butoxy]-3,4-dihydro-1H-[1,8]naphthyridin-2-one at doses of 0.1 mg/kg, 0.3 mg/kg, 1 mg/kg, 3 mg/kg, and 10 mg/kg, or vehicle were administered orally. Following a 60-minute absorption period, each rat was placed into the test chamber, and SLMA was recorded for a 1-hour time-period. SLMA is expressed as centimeters traveled. Statistical analysis was performed using a one-way ANOVA followed by a post hoc Dunnett's test.

[4] = target: D2 receptors (Homo sapiens, UniProt P14416); conditions: background statement, compound of WO2005/019215; cited from earlier work
Sequence of D2 receptors (P14416 whole entry, species assumed): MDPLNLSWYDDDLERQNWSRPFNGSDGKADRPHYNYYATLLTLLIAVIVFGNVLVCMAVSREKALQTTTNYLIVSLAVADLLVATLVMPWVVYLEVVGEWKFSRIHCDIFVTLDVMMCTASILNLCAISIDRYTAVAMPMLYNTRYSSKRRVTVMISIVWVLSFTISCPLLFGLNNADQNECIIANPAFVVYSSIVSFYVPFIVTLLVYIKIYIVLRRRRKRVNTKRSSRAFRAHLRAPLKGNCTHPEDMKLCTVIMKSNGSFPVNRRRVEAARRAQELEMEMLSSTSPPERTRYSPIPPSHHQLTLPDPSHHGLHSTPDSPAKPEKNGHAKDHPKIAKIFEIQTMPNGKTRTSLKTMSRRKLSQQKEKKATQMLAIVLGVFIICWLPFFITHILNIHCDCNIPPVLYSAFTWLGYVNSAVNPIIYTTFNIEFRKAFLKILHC

[5] = target: dopamine D2 receptor (Homo sapiens, UniProt P14416); conditions: background statement, compound of WO2005/019215; cited from earlier work
Sequence of dopamine D2 receptor (P14416 whole entry, species assumed): as above

O=C1CCc2ccc(OCCCCN3CCN(c4cccc5ccccc45)CC3)nc2N1.O=P(O)(O)O [Form A, 7-[4-(4-naphthalen-1-yl-piperazin-1-yl)-butoxy]-3,4-dihydro-1H-[1,8]naphthyridin-2-one mono-phosphate]
solid-state stability (degradation) ([1]; 25° C./60% relative humidity): little or no degradation
solid-state stability (degradation) ([1]; 30° C./70% relative humidity): little or no degradation
solid-state stability (degradation) ([1]; 40° C./75% relative humidity): little or no degradation
relative stability of crystalline forms ([1]; Form A compared with Form B): more stable than Form B

O=C1CCc2ccc(OCCCCN3CCN(c4cccc5ccccc45)CC3)nc2N1.O=P(O)(O)O [Form B, 7-[4-(4-naphthalen-1-yl-piperazin-1-yl)-butoxy]-3,4-dihydro-1H-[1,8]naphthyridin-2-one mono-phosphate]
form conversion on standing [2]: convert to Form A

O=C1CCc2ccc(OCCCCN3CCN(c4cccc5ccccc45)CC3)nc2N1 [7-[4-(4-naphthalen-1-yl-piperazin-1-yl)-butoxy]-3,4-dihydro-1H-[1,8]naphthyridin-2-one]
SLMA, Mean centimeters traveled in 1 hour±SEM ([3]; 0.1 mg/kg orally, not statistically different from vehicle): 3998±133 centimeters
SLMA, Mean centimeters traveled in 1 hour±SEM ([3]; 0.3 mg/kg orally, p<0.05 vs vehicle): 2510±185 centimeters
SLMA, Mean centimeters traveled in 1 hour±SEM ([3]; 1 mg/kg orally, p<0.05 vs vehicle): 1977±173 centimeters
SLMA, Mean centimeters traveled in 1 hour±SEM ([3]; 3 mg/kg orally, p<0.05 vs vehicle): 1742±206 centimeters
SLMA, Mean centimeters traveled in 1 hour±SEM ([3]; 10 mg/kg orally, p<0.05 vs vehicle): 1068±208 centimeters
effect on SLMA (in words) ([3]; oral, 0.1-10 mg/kg): dose-dependent reduction
minimum effective dose (reduction of SLMA) ([3]; oral, estimated): 0.3 mg/kg
activity at D2 receptors (in words) [4]: partial agonist
binding to the dopamine D2 receptor (in words) [5]: binds
